Converted amounts (≈) assume the structure as drawn. “And” between values parts separate entries of the source, which are not always exact repeats. Equal values may be shown once. Read-outs that look alike come from different tables or passages of the source.
Key:
CYP2B6 = CYP2B6 (Homo sapiens, UniProt P20813); assay: CYP inhibition; settings: human, human liver microsomes, probe bupropion, CYP2B6 inhibition, HLM, bupropion substrate
Procedure: (§3) Cytochrome P450 inhibition was assessed in vitro using human recombinant enzymes in microsomal preparations. […] Enzyme activity was quantified by monitoring formation of substrate-specific metabolites, and percent inhibition was calculated relative to vehicle control.

CYP2D6 = CYP2D6 (Homo sapiens, UniProt P10635); assay: CYP inhibition; settings: HLM, dextromethorphan substrate, 10 μM
Procedure: as §3

CYP2C19 = CYP2C19 (Homo sapiens, UniProt P33261); assay: CYP inhibition; settings: HLM, omeprazole substrate, 10 μM
Procedure: as §3

CYP2C9 = CYP2C9 (Homo sapiens, UniProt P11712); assay: CYP inhibition; settings: HLM, diclofenac substrate, 10 μM
Procedure: as §3

WI38 = assay: Toxicity in nontumor eukaryotic cell line; format: cell-based; settings: 100 μM, the highest concentration tested
CYP3A = assay: CYP inhibition; settings: human, human liver microsomes, CYP3A inhibition, HLM
Procedure: as §3

[1] = test system: NorA overexpressing strain NCTC 13616; assay: Reserpine growth (efflux inhibition) assay; settings: for AUC of growth curve: biological replicates 1-3
Procedure: Statistical analyses were performed with GraphPad Prism V9.5.0. […] Unpaired t tests were used when comparing two samples in the gyrase assays.

SafetyScreen44 targets = assay: SafetyScreen44 panel, remaining targets; format: binding, human; settings: 10 μM
Procedure: (§1) Off-target pharmacology was evaluated using the Eurofins SafetyScreen44 in vitro panel. […] Binding assays were performed using radioligand displacement, and enzyme or uptake assays measured inhibition of control activity using validated detection methods (scintillation counting, fluorimetry or photometry). Responses were expressed as percent inhibition of control binding or activity. Based on Eurofins interpretation guidelines, effects ≥50% were considered significant, effects between 25% and 50% weak to moderate, and effects <25% were not considered biologically relevant.

AR (h) = assay: SafetyScreen44; design: species or system human; settings: agonist radioligand, specific binding, 1.0E-05 M
Procedure: as §1

PDE3A (h) = target: T1, PDE3A (h) (Homo sapiens, UniProt Q14432); assay: SafetyScreen44; format: biochemical; settings: enzymatic activity, 1.0E-05 M
T1 construct: purchased Eurofins (SafetyScreen44)
Procedure: as §1

PDE4D2 (h) = target: T2, PDE4D2 (h) (Homo sapiens, UniProt Q08499); assay: SafetyScreen44; format: biochemical; settings: enzymatic activity, 1.0E-05 M
T2 construct: purchased Eurofins (SafetyScreen44)
Procedure: as §1

acetylcholinesterase (h) = target: T3, acetylcholinesterase (h) (Homo sapiens, UniProt P22303); assay: SafetyScreen44; format: biochemical; settings: enzymatic activity, 1.0E-05 M
T3 construct: purchased Eurofins (SafetyScreen44)
Procedure: as §1

COX1(h) = target: T4, COX1(h) (Homo sapiens, UniProt P23219); assay: SafetyScreen44; format: biochemical; settings: enzymatic activity, 1.0E-05 M
T4 construct: purchased Eurofins (SafetyScreen44)
Procedure: as §1

COX2(h) = target: T5, COX2(h) (Homo sapiens, UniProt P35354); assay: SafetyScreen44; format: biochemical; settings: enzymatic activity, 1.0E-05 M
T5 construct: purchased Eurofins (SafetyScreen44)
Procedure: as §1

Lck kinase (h) = target: T6, Lck kinase (h) (Homo sapiens, UniProt P06239); assay: SafetyScreen44; format: biochemical; settings: enzymatic activity, 1.0E-05 M
T6 construct: purchased Eurofins (SafetyScreen44)
Procedure: as §1

Pseudomonas aeruginosa = assay: MIC (microbroth dilution); format: cell-based
In short: (§2)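 Microbroth dilution in tryptic soy broth; Streptococcus spp. in cation-adjusted Mueller Hinton broth with 2.5% lysed horse blood, inocula from overnight stationary-phase cultures. MIC is lowest concentration without visible growth, OD600 read. Parallel MICs run with 30 μg/mL polymyxin B nonapeptide (final) as outer-membrane permeabilizer.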

S. dysgalactiae = assay: MIC (microbroth dilution); format: cell-based; settings: for MIC: Streptococcus dysgalactiae
In short: as §2

T3 sequence (P22303 32-614): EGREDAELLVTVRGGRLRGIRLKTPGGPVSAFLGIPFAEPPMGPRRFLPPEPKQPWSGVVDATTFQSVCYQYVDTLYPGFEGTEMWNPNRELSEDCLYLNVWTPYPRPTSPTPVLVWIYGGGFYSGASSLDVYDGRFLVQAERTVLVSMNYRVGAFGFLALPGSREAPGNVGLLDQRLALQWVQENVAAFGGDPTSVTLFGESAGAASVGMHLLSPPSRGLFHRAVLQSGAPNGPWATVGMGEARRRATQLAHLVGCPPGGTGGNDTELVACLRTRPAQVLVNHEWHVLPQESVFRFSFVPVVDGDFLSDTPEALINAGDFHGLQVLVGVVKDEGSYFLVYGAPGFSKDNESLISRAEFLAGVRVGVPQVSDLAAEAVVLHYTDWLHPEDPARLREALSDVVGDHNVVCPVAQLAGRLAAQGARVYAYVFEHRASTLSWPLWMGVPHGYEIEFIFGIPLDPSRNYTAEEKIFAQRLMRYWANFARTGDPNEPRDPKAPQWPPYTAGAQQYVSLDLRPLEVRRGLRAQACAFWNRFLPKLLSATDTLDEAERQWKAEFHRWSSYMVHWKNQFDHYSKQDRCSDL
T4 sequence (P23219 24-599): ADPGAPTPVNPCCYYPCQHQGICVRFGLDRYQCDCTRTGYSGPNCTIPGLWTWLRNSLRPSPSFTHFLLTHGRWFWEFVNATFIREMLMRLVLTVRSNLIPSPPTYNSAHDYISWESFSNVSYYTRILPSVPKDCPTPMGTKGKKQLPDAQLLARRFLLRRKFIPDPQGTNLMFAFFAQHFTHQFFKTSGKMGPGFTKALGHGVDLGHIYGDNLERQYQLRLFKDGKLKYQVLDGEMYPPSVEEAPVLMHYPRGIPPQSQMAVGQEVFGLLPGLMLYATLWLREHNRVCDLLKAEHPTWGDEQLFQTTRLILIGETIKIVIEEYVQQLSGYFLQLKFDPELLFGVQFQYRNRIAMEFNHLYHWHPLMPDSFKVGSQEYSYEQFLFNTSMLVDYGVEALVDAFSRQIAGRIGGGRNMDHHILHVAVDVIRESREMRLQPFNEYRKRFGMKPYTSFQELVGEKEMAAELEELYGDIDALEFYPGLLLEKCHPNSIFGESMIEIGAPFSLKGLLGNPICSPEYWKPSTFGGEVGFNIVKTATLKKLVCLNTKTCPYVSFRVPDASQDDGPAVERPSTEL
T5 sequence (P35354 18-604): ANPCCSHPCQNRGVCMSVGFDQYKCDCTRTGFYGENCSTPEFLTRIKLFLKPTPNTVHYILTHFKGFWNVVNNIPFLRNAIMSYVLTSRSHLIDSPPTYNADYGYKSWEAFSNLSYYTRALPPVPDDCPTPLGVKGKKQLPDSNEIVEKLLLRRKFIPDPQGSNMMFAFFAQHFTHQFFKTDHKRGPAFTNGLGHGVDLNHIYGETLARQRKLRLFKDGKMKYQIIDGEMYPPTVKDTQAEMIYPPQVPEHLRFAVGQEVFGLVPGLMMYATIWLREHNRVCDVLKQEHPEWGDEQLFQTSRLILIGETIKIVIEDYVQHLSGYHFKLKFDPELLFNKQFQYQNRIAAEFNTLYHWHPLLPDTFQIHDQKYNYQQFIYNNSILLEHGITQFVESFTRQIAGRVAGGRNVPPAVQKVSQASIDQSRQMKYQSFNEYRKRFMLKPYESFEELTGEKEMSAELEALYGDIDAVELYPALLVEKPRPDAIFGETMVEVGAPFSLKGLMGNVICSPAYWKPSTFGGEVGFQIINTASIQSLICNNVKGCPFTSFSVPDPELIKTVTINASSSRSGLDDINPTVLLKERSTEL
T6 sequence (P06239 whole entry): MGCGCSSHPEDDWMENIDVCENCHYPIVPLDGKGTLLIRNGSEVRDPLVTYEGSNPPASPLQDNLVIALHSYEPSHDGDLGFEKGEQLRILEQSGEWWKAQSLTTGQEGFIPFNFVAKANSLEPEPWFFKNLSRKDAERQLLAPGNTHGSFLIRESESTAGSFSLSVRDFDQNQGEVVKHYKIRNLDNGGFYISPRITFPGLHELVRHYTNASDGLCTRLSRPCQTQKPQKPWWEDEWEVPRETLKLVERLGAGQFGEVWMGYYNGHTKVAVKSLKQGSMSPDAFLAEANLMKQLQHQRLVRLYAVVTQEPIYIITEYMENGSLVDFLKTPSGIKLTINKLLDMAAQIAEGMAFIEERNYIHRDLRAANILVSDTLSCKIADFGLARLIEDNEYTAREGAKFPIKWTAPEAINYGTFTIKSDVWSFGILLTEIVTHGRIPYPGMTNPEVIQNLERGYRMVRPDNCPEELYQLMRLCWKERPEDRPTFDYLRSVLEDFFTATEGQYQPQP
T2 sequence (Q08499 303-809): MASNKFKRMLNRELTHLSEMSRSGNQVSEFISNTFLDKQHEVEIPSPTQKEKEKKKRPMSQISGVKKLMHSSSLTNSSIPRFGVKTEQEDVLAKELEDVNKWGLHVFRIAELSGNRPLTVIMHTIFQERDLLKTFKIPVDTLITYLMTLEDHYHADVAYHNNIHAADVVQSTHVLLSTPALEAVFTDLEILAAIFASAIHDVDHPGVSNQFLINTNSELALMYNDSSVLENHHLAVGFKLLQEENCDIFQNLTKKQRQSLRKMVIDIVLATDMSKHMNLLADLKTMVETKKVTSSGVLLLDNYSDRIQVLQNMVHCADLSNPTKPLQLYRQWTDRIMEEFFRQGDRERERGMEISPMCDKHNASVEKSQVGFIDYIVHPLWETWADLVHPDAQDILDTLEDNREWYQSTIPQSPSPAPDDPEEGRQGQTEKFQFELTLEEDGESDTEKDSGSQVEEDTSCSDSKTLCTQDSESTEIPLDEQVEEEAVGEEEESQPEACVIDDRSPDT
CYP2B6, sequence (P20813 whole entry): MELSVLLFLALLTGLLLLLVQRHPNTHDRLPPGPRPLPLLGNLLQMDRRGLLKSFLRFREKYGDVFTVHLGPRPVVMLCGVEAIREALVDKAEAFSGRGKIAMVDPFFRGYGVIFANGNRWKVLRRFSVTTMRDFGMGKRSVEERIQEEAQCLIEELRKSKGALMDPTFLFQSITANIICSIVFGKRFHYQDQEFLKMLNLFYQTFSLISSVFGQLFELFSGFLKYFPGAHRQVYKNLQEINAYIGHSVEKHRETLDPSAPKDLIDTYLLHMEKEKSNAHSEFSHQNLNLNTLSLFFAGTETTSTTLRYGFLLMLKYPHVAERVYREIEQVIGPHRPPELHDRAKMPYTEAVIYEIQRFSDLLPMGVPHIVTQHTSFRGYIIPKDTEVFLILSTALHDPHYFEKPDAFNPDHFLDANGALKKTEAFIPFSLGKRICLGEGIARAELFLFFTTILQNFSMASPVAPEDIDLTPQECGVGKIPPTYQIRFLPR
T1 sequence (Q14432 whole entry): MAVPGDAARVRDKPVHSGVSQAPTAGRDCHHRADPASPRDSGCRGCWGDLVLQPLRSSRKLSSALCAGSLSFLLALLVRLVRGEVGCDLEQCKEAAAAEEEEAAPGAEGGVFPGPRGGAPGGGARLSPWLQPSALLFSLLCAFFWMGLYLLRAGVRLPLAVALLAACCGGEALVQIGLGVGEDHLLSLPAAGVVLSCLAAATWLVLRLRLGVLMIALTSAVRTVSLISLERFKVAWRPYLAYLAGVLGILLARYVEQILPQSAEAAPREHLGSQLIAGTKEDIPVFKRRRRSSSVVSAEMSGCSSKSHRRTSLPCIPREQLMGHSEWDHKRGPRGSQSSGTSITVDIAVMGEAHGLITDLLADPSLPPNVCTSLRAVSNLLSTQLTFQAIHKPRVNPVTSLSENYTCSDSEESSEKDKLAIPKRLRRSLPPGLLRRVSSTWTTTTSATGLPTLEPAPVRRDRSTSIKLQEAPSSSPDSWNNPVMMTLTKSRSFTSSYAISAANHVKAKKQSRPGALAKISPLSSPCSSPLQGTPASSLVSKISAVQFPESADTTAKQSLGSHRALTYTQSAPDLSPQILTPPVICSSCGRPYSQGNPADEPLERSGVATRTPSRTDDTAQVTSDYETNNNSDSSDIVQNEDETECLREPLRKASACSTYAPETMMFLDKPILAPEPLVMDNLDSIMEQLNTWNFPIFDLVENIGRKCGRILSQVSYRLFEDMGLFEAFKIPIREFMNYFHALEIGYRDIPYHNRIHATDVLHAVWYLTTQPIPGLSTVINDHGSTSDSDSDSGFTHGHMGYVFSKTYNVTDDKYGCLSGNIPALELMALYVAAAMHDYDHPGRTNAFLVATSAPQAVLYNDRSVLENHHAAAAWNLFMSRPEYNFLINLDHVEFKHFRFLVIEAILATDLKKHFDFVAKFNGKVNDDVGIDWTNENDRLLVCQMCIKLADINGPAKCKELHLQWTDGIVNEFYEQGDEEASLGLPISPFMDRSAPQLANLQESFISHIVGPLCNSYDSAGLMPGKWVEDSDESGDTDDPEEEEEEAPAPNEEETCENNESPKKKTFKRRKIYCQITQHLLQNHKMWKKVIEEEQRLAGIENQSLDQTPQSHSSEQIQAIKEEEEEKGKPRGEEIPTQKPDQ
CYP2D6, sequence (P10635 whole entry): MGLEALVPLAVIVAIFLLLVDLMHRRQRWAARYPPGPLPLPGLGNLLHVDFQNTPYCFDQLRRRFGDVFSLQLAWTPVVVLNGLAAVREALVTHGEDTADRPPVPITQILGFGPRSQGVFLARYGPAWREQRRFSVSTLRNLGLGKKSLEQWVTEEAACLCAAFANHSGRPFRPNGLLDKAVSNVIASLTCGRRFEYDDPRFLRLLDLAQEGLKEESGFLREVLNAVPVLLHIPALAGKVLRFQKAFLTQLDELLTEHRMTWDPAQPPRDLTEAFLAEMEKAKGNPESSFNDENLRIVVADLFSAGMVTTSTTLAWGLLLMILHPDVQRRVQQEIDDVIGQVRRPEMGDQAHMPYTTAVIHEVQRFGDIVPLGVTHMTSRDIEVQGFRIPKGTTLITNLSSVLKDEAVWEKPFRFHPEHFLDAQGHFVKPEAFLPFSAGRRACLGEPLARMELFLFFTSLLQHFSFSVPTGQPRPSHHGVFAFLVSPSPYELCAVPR

With `C[C@H]1COc2c(N3CC[C@@H](Nc4ncccn4)C3)c(F)cc3c(=O)c(C(=O)O)cn1c23` [Compound 46, (S)-9-Fluoro-3-methyl-7-oxo-10-((R)-3-(pyrimidin-2-ylamino)pyrrolidin-1-yl)-2,3-dihydro-7H-[1,4]oxazino[2,3,4-ij]quinoline-6-carboxylic acid] as the molecule, how does the inhibition at 10 µM (CYP2B6) read?
The inhibition at 10 µM was -1.3%.

What about the CYP2D6 inhibition (CYP2D6) of the same molecule?
The CYP2D6 inhibition was 0.0%.

What about the CYP2C19 inhibition (CYP2C19) of the same molecule?
The CYP2C19 inhibition was 0.6%.

What about the CYP2C9 inhibition (CYP2C9) of the same molecule?
Its CYP2C9 inhibition is 12.8%.

And the “toxicity in WI38” value (WI38)?
Its value is “nontoxic”.

And the inhibition at 10 µM (CYP3A; probe midazolam, midazolam substrate)?
Its inhibition at 10 µM is 25.2%.

And the inhibition at 10 µM (CYP3A; probe testosterone, testosterone substrate)?
Its inhibition at 10 µM is 6.5%.

And the “AUC of growth curve” value ([1]; 0.25 MIC + R (reserpine))?
The value was 3.991 and 3.857 and 2.348.

And the “AUC of growth curve” value ([1]; 0.25 MIC)?
The value was 5.243 and 5.279 and 3.696.

And the “AUC of growth curve” value ([1]; 0.5 MIC + R (reserpine))?
The value was 3.930 and 3.864 and 2.013.

What about the “AUC of growth curve” value ([1]; 0.5 MIC) of the same molecule?
The value was 4.798 and 3.349 and 3.713.

And the “efflux liability in reserpine assay” value ([1]; 0.5x MIC with vs without reserpine)?
Its value is “minimal shift”.

What about the “inhibition, all other / remaining targets” value (SafetyScreen44 targets) of the same molecule?
The value was less than 25%.

What about the “% Inhibition” value (AR (h)) of the same molecule?
The value was 4.241%.

And the “% Inhibition” value (PDE3A (h))?
The value was 7.502%.

What about the inhibition at 10 µM (PDE4D2 (h)) of the same molecule?
The inhibition at 10 µM was 14.8%.

And the “% Inhibition” value (acetylcholinesterase (h))?
The value was 32.9861% and 33.0%.

What about the “% Inhibition” value (COX1(h)) of the same molecule?
Its value is 30.3185% and 30.3%.

What about the “% Inhibition” value (COX2(h)) of the same molecule?
Its value is 8.111%.

What about the “% Inhibition” value (Lck kinase (h)) of the same molecule?
The value was -2.891%.

What about the MIC (Pseudomonas aeruginosa; CAS4, + PMBN) of the same molecule?
Its MIC is 0.06 µg/mL.

What about the MIC (Pseudomonas aeruginosa; CFL 004 CRCN, + PMBN) of the same molecule?
The MIC was 8 µg/mL.

What about the MIC (Pseudomonas aeruginosa; GH12, + PMBN) of the same molecule?
Its MIC is 0.5 µg/mL.

And the MIC (Pseudomonas aeruginosa; NCTC 10662, + PMBN)?
Its MIC is no more than 0.03 µg/mL.

And the MIC (Pseudomonas aeruginosa; NCTC 12903, + PMBN)?
Its MIC is no more than 0.03 µg/mL.

And the MIC (Pseudomonas aeruginosa; NCTC 13359, + PMBN)?
The MIC was 0.06 µg/mL.

And the MIC (Pseudomonas aeruginosa; PAO1 ΔmexB, + PMBN)?
Its MIC is no more than 0.03 µg/mL.

And the MIC (Pseudomonas aeruginosa; Pseudomonas aeruginosa, CAS4, read-out: MIC)?
The MIC was 8 µg/mL (≈ 18.8 µM).

What about the MIC (Pseudomonas aeruginosa; Pseudomonas aeruginosa, GH12, read-out: MIC) of the same molecule?
Its MIC is greater than 32 µg/mL.

And the MIC (Pseudomonas aeruginosa; Pseudomonas aeruginosa, GH100, read-out: MIC)?
Its MIC is 1 to 4 µg/mL (≈ 2.35 to 9.4 µM).

What about the MIC (Pseudomonas aeruginosa; Pseudomonas aeruginosa, NCTC10662, NCTC 10662, read-out: MIC) of the same molecule?
Its MIC is 8 µg/mL (≈ 18.8 µM).

What about the MIC (Pseudomonas aeruginosa; Pseudomonas aeruginosa, NCTC12903, NCTC 12903, read-out: MIC) of the same molecule?
Its MIC is 8 µg/mL (≈ 18.8 µM).

And the MIC (Pseudomonas aeruginosa; Pseudomonas aeruginosa, NCTC13359, NCTC 13359, read-out: MIC)?
Its MIC is 4 to 32 µg/mL (≈ 9.4 to 75.2 µM).

What about the MIC (Pseudomonas aeruginosa; Pseudomonas aeruginosa, PAO1, PAO1, read-out: MIC) of the same molecule?
Its MIC is 4 to 8 µg/mL (≈ 9.4 to 18.8 µM).

And the MIC (Pseudomonas aeruginosa; Pseudomonas aeruginosa, CFL 004 CRCN, read-out: MIC)?
Its MIC is greater than 32 µg/mL.

And the MIC50 (Pseudomonas aeruginosa; Pseudomonas aeruginosa, in the presence of PMBN, n = 7 strains)?
Its MIC50 is 0.06 µg/mL.

What about the MIC (S. dysgalactiae; 10238, read-out: MIC) of the same molecule?
Its MIC is 0.06 to 0.25 µg/mL (≈ 0.141 to 0.588 µM).

What about the MIC (S. dysgalactiae; 13759, read-out: MIC) of the same molecule?
Its MIC is 0.06 µg/mL (≈ 0.141 µM).

And the MIC (S. dysgalactiae; 13762, read-out: MIC)?
The MIC was 0.06 µg/mL (≈ 0.141 µM).

And the MIC (S. dysgalactiae; 81251)?
The MIC was 0.125 µg/mL (≈ 0.294 µM).

And the MIC (S. dysgalactiae; 81553)?
Its MIC is 0.125 µg/mL (≈ 0.294 µM).

And the MIC (S. dysgalactiae; 84143)?
The MIC was 0.06 to 0.125 µg/mL (≈ 0.141 to 0.294 µM).

What about the MIC (S. dysgalactiae; 84557) of the same molecule?
Its MIC is 0.03 to 0.125 µg/mL (≈ 0.0705 to 0.294 µM).

What about the MIC (S. dysgalactiae; 84574) of the same molecule?
Its MIC is 0.06 to 0.125 µg/mL (≈ 0.141 to 0.294 µM).

And the MIC range (S. dysgalactiae; n = 8)?
The MIC range was 0.0625 to 0.125 µg/mL.

Source: article PMC13266999, “Designing Antibiotics with Inherent Resistance to Efflux as a Strategy to Revive Discovery against Multidrug-Resistant Pathogens” (Journal of Medicinal Chemistry, 2026)
